Assay results: patent publication US8350062B2, “Synthesis and anticancer activity of new actin-targeting small-molecule agents” (priority 2009, dated 2013)
“Also recorded” adds a separate entry of the source.

What was measured:
filamentous actin = filamentous actin (Oryctolagus cuniculus, UniProt P68135); assay: TIRF microscopy of actin filament severing and depolymerization; type: biochemical, rabbit; design: Actin was purified from rabbit muscle acetone powder; tissue Pel-Freez Biologicals (acetone powder); host or cells: rabbit muscle acetone powder
Description: To gain further insight into the mode of action of bistramide A, we next investigated the interaction of the natural product and its analogs with filamentous actin. […] Similar observations have been reported for several other actin-binding natural products. However, this effect could provide only limited mechanistic information and may primarily reflect the binding of a small molecule to the filaments in close proximity to the dye and quenching of pyrene fluorescence, which could be independent of the rates of actin depolymerization. Some proteins like myosin and Actin Depolymerizing Factor (ADF)/Cofilin are known to do so. Total internal reflection fluorescence (TIRF) microscopy has recently emerged as a powerful tool to investigate actin filament dynamics and its regulation by several actin-binding proteins, as well as latrunculin A, which is […] depolymerizing filamentous actin in vitro. Thus, we decided to employ TIRF microscopy to observe in real time the effects of bistramide-based compounds on actin polymerization in vitro. We believe this is the first instance where TIRF microscopy has been utilized to study the severing of actin filaments by a small molecule. We polymerized G-actin containing 25% of tetramethylrhodamine-functionalized and 10% of biotin-functionalized actin. The resulting actin filaments were immobilized onto the streptavidin-coated glass slides (in a flow cell). Analogs 1-8 were flown through the flow cell and imaged by time-lapse TIRF microscopy.
Total Internal Reflection Fluorescence Microscopy. Actin filament severing was studied using a custom-built total internal reflection fluorescence microscope. Images were collected with a 100×, 1.45 NA objective (Olympus) and an EMCCD camera (iXon, Andor Technologies). Glass flow cell (6 μl volume) was washed with 0.25 mg/ml neutravidin in F-buffer (50 mM KCl, 1 mM MgCl2, 1 mM EGTA, 10 mM imidiazole, 2 mM ATP, 0.2 mM 2-mercaptoethanol, 2 min) and blocked with 1 mg/ml BSA in F-buffer (2 min). Ten microliters of 200 nM Mg^2+-F-actin (10% biotinylated, 25% labeled with maleimide-6-tetramethylrhodamine) in TIRF-buffer (50 mM KCl, 1 mM MgCl2, 1 mM EGTA, 10 mM imidiazole, 2 mM ATP, 4.5 mg/ml glucose, 0.5% 2-mercaptoethanol, 4.3 mg/ml glucose oxidase, 0.7 mg/ml catalase) was added to the flowcell and incubated for 2 min. The chamber was rinsed with TIRF-buffer and imaged. Compounds were freshly diluted from their DMSO stock solutions in TIRF-buffer and were added to the chamber immediately after the start of each experiment. Images were collected at 0.2-s exposures every 3 s for 200 frames. For kinetics studies, movies of suitable length were obtained for each of the analog concentrations. Analysis was performed using ImageJ.

G-actin [1] = biological target: T1, G-actin (Oryctolagus cuniculus, UniProt P68135); assay: Interaction with actin by MALDI-TOF (covalent modification); type: biochemical, rabbit; settings: 1:1 actin-drug complex, 30 min
T1 construct: Actin was purified from rabbit muscle acetone powder; tissue Pel-Freez Biologicals (acetone powder); host or cells: rabbit muscle acetone powder
Description: Interaction Of Bistramide-Based Compounds With Actin By MALDI-TOF. A 1:1 actin-drug complex was incubated for 30 min in 2 mM Tris-HCl, pH 8.0, 0.2 mM CaCl2, 0.01% NaN3, 0.2 mM ATP, 1 mM 2-mercaptoethanol, diluted with deionized water to 26 μM and mixed with an equal volume of a solution of 10 mg/ml sinapinic acid in 50% CH3CN— 0.1% TFA. MALDI spectra were obtained on a Voyager-DE PRO biospectrometry workstation.

A549 cells = assay: Cell viability assay (CellTiter-Glo), growth inhibition of A549 cells; type: cell-based, human; settings: Homo sapiens, A549, 48 h, 48 h incubation
Description: Cell Viability Assays. All assays were performed using at least three replicate wells for each concentration tested. Original 10-25 mM DMSO stock solution of bistramide A or its analogs was diluted to 100 μM for analogs 4-8, 10 μM for analog 3, 5 μM for analog 2 and 1 μM for bistramide A (1) with F-12K cell culture media supplemented with 10% fetal bovine serum, 100 I.U./ml penicillin, 100 μg/ml streptomycin and 2 mM L-glutamine. Two-fold serial dilutions were performed and used for cell-based assays. A549 cells were grown in 96-well white plates at the density of 1,000 cells per well in 100 μl F-12K cell culture media. Cells were allowed to attach over 24 h and treated with 30 μl of the drug solution and incubated further for 48 h. After incubation, cell viability was determined using luminescence-based commercial kit (CellTiter-Glo, Promega) and luminescence measured using a Wallac Victor 3 plate reader. To measure cell growth inhibition, viability assays were performed twice: at initial time point T0 and after 48 h incubation (T48). Change in the number of viable cells was measured, and GI50 was calculated from sigmoidal plots. For analog 10, growth of A549 and PC3 cells was monitored over 96 h following addition of the drug. 100 μM was the highest concentration tested. At no point did the total DMSO conc. exceed 1%.

F-actin in A549 cells = assay: Fluorescent visualization of F-actin in A549 cells (Alexa Fluor 488 phalloidin); type: cell-based, human; settings: 2 h incubation
Description: The presence of the enone increased the severing efficiency of the analogs three-fold. […] We determined whether it was the depletion of actin filaments by analogs 2-5 which was responsible for the growth inhibition of A549 cells. Each of the compounds was incubated with A549 cells for 2 h at a concentration that exceeded the GI50 value by a factor of 5. The cells were then fixed, permeabilized and filamentous actin was visualized by fluorescence microscopy following Alexa Fluor 488 phalloidin staining. […] They induced depolymerization at 150 nM for bistramide A (1), 500 nM for analog 2 and 2 μM for analog 3. Analogs 4 and 5 induced depolymerization of actin only at concentrations as high as 100 μM. […] This observation was consistent with the enhanced cell-based activity of the compounds containing the C(1)-C(4) enone moiety.
Fluorescent Visualization Of F-Actin In Cells. A549 cells grown on coverslips were incubated with analogs 4-8 (100 μM) analog 3 (2 μM) or analog 2 (500 nM) or bistramide A (150 nM) in F-12K cell culture medium for 2 h, fixed with 3% formaldehyde in PBS at 25° C. for 5 min and permeabilized with 0.1% Triton X-100 at 25° C. for 10 min. After washing with PBS, coverslips were stained with Alexa Fluor 488 Phalloidin and visualized by fluorescence microscopy.

[2] = test system: non-small cell broncho-pulmonary carcinoma xenografts; settings: mouse, in vivo; cited from earlier work
[3] = mouse, in vivo; cited from earlier work
G-actin [4] = biological target: T1, G-actin; assay: Isothermal titration calorimetry, binding to monomeric actin; design: species or system rabbit
Description: Isothermal Titration Calorimetry. A solution of rabbit skeletal muscle actin (5-10 μM) was titrated with bistramide A or its analog (50-100 μM) at 25° C. in buffer containing 2 mM Tris HCl, pH 8.0, 0.2 mM CaCl2, 0.01% NaN3, 0.2 mM ATP, 0.2 mM 2-mercaptoethanol. Dissociation constants were calculated from the binding curve using Origin analytical software (OriginLab) with the binding model involving a single set of identical sites

Row | Compound | effect on filamentous actin (filamentous actin; 750 nM) | No. of breaks per 100 μm (filamentous actin; compound at 0.75 μM) [per 100 μm] | Pointed-end depolymerization rate (filamentous actin; compound at 0.75 μM, standard deviations 0.1-0.3 subunits/s) [subunits/s] | Barbed-end depolymerization rate (filamentous actin; compound at 0.75 μM, standard deviations 0.4-0.6 subunits/s) [subunits/s] | covalent modification of G-actin (G-actin [1]) | GI50 (A549 cells) [nM] | GI50 (A549 cells; values of the text) [nM] | concentration inducing actin depolymerization in A549 cells (F-actin in A549 cells) [nM] | inhibition of tumor growth in xenograft model [2] | general toxicity [3] | Kd (G-actin [4]) [nM] | dose with no observed toxicity [3]
1 | C/C=C/C(=O)C[C@@H]1CCC(C)C(CC(=O)NC[C@H](O)[C@H](C)C(=O)NCCC[C@H]2O[C@@]3(CCC[C@@H](CC[C@H](C)/C=C(\C)C(C)O)O3)CCC2C)O1 (some centres unmarked) [Bistramide A (1), bistramide A, reference compound] | rapid filament depletion | 40.4 | 0.49 | 1.88 | covalently modified G-actin | 20 | 20.4 | 150 | ineffective at reducing tumor growth | high general toxicity | 7 | –
2 | C/C=C/[C@H](O)CC1CCC(C)C(CC(=O)NCC(O)C(C)C(=O)NCCCC2OC3(CCCC(CCC(C)/C=C(\C)C(C)O)O3)CCC2C)O1 (some centres unmarked) [bistramide D] | – | – | – | – | – | – | – | – | shown to inhibit proliferation; also recorded: effective at inhibiting tumor growth in vivo | – | – | –
3 | C/C=C/C(O)C/C=C/CC(C)C(O)CC(=O)NCC(O)C(C)C(=O)NCCCC1OC2(CCCC(CCC(C)/C=C(\C)C(C)O)O2)CCC1C (centres unmarked) [bistramide K] | – | – | – | – | – | – | – | – | shown to inhibit proliferation; also recorded: effective at inhibiting tumor growth in vivo | – | – | up to 200 mg/kg
